In data set [1] the target is T1, S-adenosyl-L-methionine:delta24-sterol-C-methyltransferase (Glycine max) (UniProt Q43445).
T1 sequence (whole entry): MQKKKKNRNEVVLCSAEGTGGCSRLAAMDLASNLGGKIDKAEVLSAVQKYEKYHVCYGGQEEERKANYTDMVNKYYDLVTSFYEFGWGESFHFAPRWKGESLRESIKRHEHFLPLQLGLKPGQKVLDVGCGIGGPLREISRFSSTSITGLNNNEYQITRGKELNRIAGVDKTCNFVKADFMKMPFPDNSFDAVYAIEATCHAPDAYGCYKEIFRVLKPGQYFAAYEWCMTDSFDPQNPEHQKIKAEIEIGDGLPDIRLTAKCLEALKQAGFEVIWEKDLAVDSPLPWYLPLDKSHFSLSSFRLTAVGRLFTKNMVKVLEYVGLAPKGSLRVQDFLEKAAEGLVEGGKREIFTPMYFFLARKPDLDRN
The experiment in a line: (§1) Inhibition of soybean recombinant SMT expressed in Escherichia coli.

In data set [2] the target is T2, S-adenosyl-L-methionine:delta24-sterol-C-methyltransferase (Glycine max, UniProt Q43445).
T2 sequence (Q43445 whole entry): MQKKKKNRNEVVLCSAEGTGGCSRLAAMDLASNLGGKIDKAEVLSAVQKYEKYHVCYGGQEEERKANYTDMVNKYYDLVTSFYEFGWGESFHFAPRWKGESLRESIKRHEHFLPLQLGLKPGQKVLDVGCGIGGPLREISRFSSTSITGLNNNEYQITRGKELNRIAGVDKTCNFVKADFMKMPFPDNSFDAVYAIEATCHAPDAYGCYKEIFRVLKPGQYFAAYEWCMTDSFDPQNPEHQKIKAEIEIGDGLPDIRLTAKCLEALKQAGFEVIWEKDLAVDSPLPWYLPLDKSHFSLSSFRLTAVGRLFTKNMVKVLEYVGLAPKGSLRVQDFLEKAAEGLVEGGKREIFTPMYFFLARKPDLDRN
The description is as §1.

Data set [3] has as its target T1, S-adenosyl-L-methionine:delta24-sterol-C-methyltransferase (Glycine max). The experiment in a line: Ratio of Kcat to Kinact for soybean recombinant SMT expressed in Escherichia coli.
For data set [4] the target is unchanged. In words: Inhibition of soybean recombinant SMT expressed in Escherichia coli assessed as C-methylation in presence of 100 uM cycloartenol substrate. Also noted: scale not given: the % may be the effect or the level left.
Data set [5] shares this target. The experiment in a line: Inhibition of soybean recombinant SMT expressed in Escherichia coli assessed as C-methylation in presence of 50 uM cycloartenol substrate. Details: scale not given: the % may be the effect or the level left.
Substrate in data set [6]: C#C/C(C)=C/CCC(C)[C@H]1CC[C@@]2(C)[C@@H]3CC[C@H]4C(C)(C)[C@@H](O)CCC45CC35CC[C@]12C
The experiment in a line: (§2) Activity of soybean recombinant SMT expressed in Escherichia coli. To be noted: Glycine max.

Substrate in data set [7]: C=C/C(C)=C/CCC(C)[C@H]1CC[C@@]2(C)[C@@H]3CC[C@H]4C(C)(C)[C@@H](O)CCC45CC35CC[C@]12C
The description is as §2. The note with it: Glycine max.

For `CC(C)=CCC[C@@H](C)[C@H]1CC[C@@]2(C)[C@@H]3CC[C@H]4C(C)(C)[C@@H](O)CCC45CC35CC[C@]12C` (stereo partly specified), the Kinact in data set [1] turned out to be 0.29 min⁻¹. Further, the Ki in data set [2] stood at 42 µM.
Take `C#C/C(C)=C/CCC(C)[C@H]1CC[C@@]2(C)[C@@H]3CC[C@H]4C(C)(C)[C@@H](O)CCC45CC35CC[C@]12C` (stereo partly specified): the Kinact in data set [1] turned out to be 0.06 min⁻¹. Further, the IC50 in data set [2] worked out at 67 µM. Besides, the Ratio in data set [3] turned out to be 0.001.
With `C=C/C(C)=C/CCC(C)[C@H]1CC[C@@]2(C)[C@@H]3CC[C@H]4C(C)(C)[C@@H](O)CCC45CC35CC[C@]12C` (stereo partly specified), the figures for the Activity in data set [4] and in data set [5] were 45% and 25%, respectively. The Kinact in data set [1] is 0.24 min⁻¹. In data set [2], the Ki was found to be 47 µM. Also, the Ratio in data set [3] amounted to 0.001.
`CC(C)SCC[C@@H](C)[C@H]1CC[C@@]2(C)[C@@H]3CC[C@H]4C(C)(C)[C@@H](O)CCC45CC35CC[C@]12C` (stereo partly specified): the Kinact in data set [1] was found to be 0.3 min⁻¹. Moreover, the Ki in data set [2] amounted to 2 µM.

B1: S-adenosyl-L-methionine:delta24-sterol-C-methyltransferase (Glycine max), Q43445 (protein)
chain: MQKKKKNRNEVVLCSAEGTGGCSRLAAMDLASNLGGKIDKAEVLSAVQKYEKYHVCYGGQEEERKANYTDMVNKYYDLVTSFYEFGWGESFHFAPRWKGESLRESIKRHEHFLPLQLGLKPGQKVLDVGCGIGGPLREISRFSSTSITGLNNNEYQITRGKELNRIAGVDKTCNFVKADFMKMPFPDNSFDAVYAIEATCHAPDAYGCYKEIFRVLKPGQYFAAYEWCMTDSFDPQNPEHQKIKAEIEIGDGLPDIRLTAKCLEALKQAGFEVIWEKDLAVDSPLPWYLPLDKSHFSLSSFRLTAVGRLFTKNMVKVLEYVGLAPKGSLRVQDFLEKAAEGLVEGGKREIFTPMYFFLARKPDLDRN
B1: in data set [6], the Km came to 2 µM and the kcat amounted to 8.33e-07 s⁻¹. In data set [7], the Km worked out at 5 µM and the kcat amounted to 5e-06 s⁻¹.

The values above are taken from ChEMBL document CHEMBL1137496, “Inactivation of soybean sterol 24-C-methyltransferase by elongated sterol side chains at C26” (Bioorg Med Chem Lett, 2007).
